Patent publication US20260263624A1, “COMBINATION OF ANTIBODY-DRUG CONJUGATE AND CANCER THERAPY, AND USE THEREOF” (GENEQUANTUM HEALTHCARE (SUZHOU) CO., LTD., priority 2023, published 2026)

Legend:
[1] = tested on: HCC1954 cells (breast cancer HER2-high CDX model); test: In vivo efficacy of GQ01 with chemotherapies in human breast cancer CDX model, HCC1954 (Example 6); parameters: species or system BALB/c nude mice; conditions: for Tumor volume (mm^3), Mean ± SEM: end day (day 32)
Description: I. HCC1954 cells in exponential growth stage were collected and counted for tumor inoculation. 0.2 mL of matrix gel buffer (PBS: Matrigel=1:1) was used to subcutaneously inject 1×10^6 cells into the right flank of SPF female BALB/c nude mice aged 6-8 weeks.
(§1) II. 9 days after inoculation, the tumor diameter was measured with a caliper and the tumor volume was calculated according to the formula V=0.5 a×b2 (wherein a is the long diameter of the tumor and b is the short diameter of the tumor). […] Each group included 6 mice. The day of first administration was defined as day 0. […] The tumor volume of mice in each group was measured twice a week.

[2] = tested on: BT-474 cells (breast cancer HER2-high CDX model); test: In vivo efficacy of GQ01 with chemotherapies in human breast cancer CDX model, BT-474 (Example 5); parameters: species or system BALB/c nude mice; conditions: GQ01 5 mg/kg single dose; for TGI (%): day 25; for Tumor volume (mm^3), Mean ± SEM: end day (day 25)
Description: I. Breast cancer tumor cells were passaged in vivo from BT-474 cells (ATCC, Lot #HTB-20). The cells in exponential growth stage were collected and counted for tumor inoculation. 0.2 mL of matrix gel buffer (PBS: Matrigel=1:1) was used to subcutaneously inject 2×10^6 cells into the right flank of SPF female BALB/c nude mice aged 6-8 weeks. Four days before cell inoculation, BALB/c nude mice had been subcutaneously inoculated with estrogen tablet.
as §1, with “10” for “9”

[3] = capecitabine 300 mg/kg QD 2 weeks, combination 5 + 300 mg/kg
[4] = capecitabine 300 mg/kg QD 2 weeks, combination 5 + 300 mg/kg, listed as capecitabine
[5] = paclitaxel 10 mg/kg BIW 4 weeks, combination 5 + 10 mg/kg
[6] = paclitaxel 10 mg/kg BIW 4 weeks, combination 5 + 10 mg/kg, listed as paclitaxel

CCCCCOC(=O)Nc1nc(=O)n([C@@H]2O[C@H](C)[C@@H](O)[C@H]2O)cc1F [Capecitabine, capecitabine]
Tumor volume (mm^3), Mean ± SEM ([1]; table prints GQ01 5 mg/kg and 5 + 300 mg/kg, text GQ01 2 mg/kg single dose, capecitabine 300 mg/kg QD 2 weeks): 1,183 ± 222 mm^3
Tumor volume (mm^3), Mean ± SEM ([1]; table prints GQ01 5 mg/kg and 5 + 300 mg/kg, text GQ01 2 mg/kg single dose, capecitabine 300 mg/kg QD 2 weeks, listed as capecitabine): 1183 mm^3
TGI (%) ([1]; text: day 32, footnote: day 25, table prints GQ01 5 mg/kg and 5 + 300 mg/kg, text GQ01 2 mg/kg single dose, capecitabine 300 mg/kg QD 2 weeks): 29.05%
TGI (%) ([1]; text: day 32, footnote: day 25, table prints GQ01 5 mg/kg and 5 + 300 mg/kg, text GQ01 2 mg/kg single dose, capecitabine 300 mg/kg QD 2 weeks, listed as capecitabine): 29.05%
TGI (%) [2, 3]: 21.01%
TGI (%) [2, 4]: 21.01%
Tumor volume (mm^3), Mean ± SEM [2, 3]: 858 ± 280 mm^3
Tumor volume (mm^3), Mean ± SEM [2, 4]: 858 mm^3

CC(=O)O[C@H]1C(=O)[C@@]2(C)[C@H]([C@H](OC(=O)c3ccccc3)[C@]3(O)C[C@H](OC(=O)[C@H](O)[C@@H](NC(=O)c4ccccc4)c4ccccc4)C(C)=C1C3(C)C)[C@]1(OC(C)=O)CO[C@@H]1C[C@@H]2O [Paclitaxel, paclitaxel]
TGI (%) ([1]; day 32, GQ01 2 mg/kg single dose, paclitaxel 10 mg/kg BIW 4 doses, combination 2 + 10 mg/kg, trastuzumab 5 + pertuzumab 5 (single dose) + paclitaxel 10 mg/kg): 26.60%
TGI (%) ([1]; day 32, GQ01 2 mg/kg single dose, paclitaxel 10 mg/kg BIW 4 doses, combination 2 + 10 mg/kg, trastuzumab 5 + pertuzumab 5 (single dose) + paclitaxel 10 mg/kg, listed as paclitaxel): 26.60%
Tumor volume (mm^3), Mean ± SEM ([1]; GQ01 2 mg/kg single dose, paclitaxel 10 mg/kg BIW 4 doses, combination 2 + 10 mg/kg, trastuzumab 5 + pertuzumab 5 (single dose) + paclitaxel 10 mg/kg): 1,219 ± 124 mm^3
Tumor volume (mm^3), Mean ± SEM ([1]; GQ01 2 mg/kg single dose, paclitaxel 10 mg/kg BIW 4 doses, combination 2 + 10 mg/kg, trastuzumab 5 + pertuzumab 5 (single dose) + paclitaxel 10 mg/kg, listed as paclitaxel): 1219 mm^3
TGI (%) [2, 5]: 58.54%
TGI (%) [2, 6]: 58.54%
Tumor volume (mm^3), Mean ± SEM [2, 5]: 520 ± 87 mm^3
Tumor volume (mm^3), Mean ± SEM [2, 6]: 520 mm^3
